# Paper PMC10253591, “A Non-Systemic Phosphodiesterase-5 Inhibitor Suppresses Colon Proliferation in Mice” (International Journal of Molecular Sciences, 2023)
# Legend:
# mice [1] = assay: Arterial blood pressure by telemetry, interaction with isosorbide mononitrate; type: in vivo; conditions: ISMN 300 mg/kg i.p. alone (oral vehicle), baseline around 100 mmHg
# Protocol: Male C57BL/6J mice (n = 4) were implanted with a PA-C10 blood pressure transmitter in the right carotid artery (Data Sciences International, St. Paul, MN, USA), and after recovery from surgery, the data was recorded using the DSI PhysioTel system (Data Sciences International, St. Paul, MN, USA). For each experiment, the mice were randomly selected for treatment with ISMN mixed in diH20, and 0.1 mL was injected i.p. for a final dose of 300 mg/kg. […] The experiment was repeated until each treatment had been reproduced in 5 independent biological trials after which mice were euthanized.
# The surgical procedures and implantable telemetry approach for measuring blood pressure in mice have been described in detail previously. In brief, all surgical instruments were autoclaved on a stainless-steel tray that was used as the sterile surface during surgery. The mouse is anesthetized in an isoflurane-inducing chamber. Anesthesia used a fitted nose cone connected to an isoflurane system running 2% in a stream of 100% oxygen mixed with room air. The incision area was shaved and prepped with betadine and rinsed with 70% ethanol. Anesthesia was assessed continuously during shaving and prepping for surgery, with appropriate adjustments. An approximately 10 mm incision was made in the ventral neck region over the trachea to expose the […]. […]
# [2] = LC-MS/MS measurement of compound in plasma and feces after oral gavage; conditions: mice; for level in feces: feces collected between 2–4 h
# human PDE5a = target: T1, human PDE5a (Homo sapiens, UniProt O76074); assay: In vitro assay for PDE5 inhibitory activity (commercial kit); type: biochemical; conditions: mean of n = 3
# T1 construct: purchased BPS Bioscience
# [3] = system: LS-174T colon cancer cells; assay: Cell-based permeability assay: cellular cGMP (ELISA) in linaclotide-treated cells; conditions: LS-174T cells; for EC50: Homo sapiens, LS174T, 1 µM linaclotide, 4 h, cGMP ELISA, read-out: EC50 for increasing cellular cGMP levels
# Protocol: The cell-based permeability assays were performed using LS-174T colon cancer cells obtained from the American Type Culture Collection. Cells were treated with 1 µM linaclotide together with different PDE5i concentrations for 4 h, followed by processing of cell extracts for cellular cGMP measurement using cGMP ELISA kits according to the manufacturer instructions (Cayman Chemical, Ann Arbor, MI, USA). The calculated EC50 values are the concentration of compound required to increase cellular cGMP levels by 50% of maximum based on predictions determined by curve fitting in GraphPad Prism 9 (San Diego, CA, USA). To assess activation of cGMP signaling by immunoblotting, we used LS174T cells with inducible PKG2 expression that were described recently.
# colon epithelium = assay: Cell proliferation in the colon epithelium (Ki67 flow cytometry, PCNA IHC); type: in vivo; conditions: mice, 9 mg/kg in drinking water; for Ki67+ cells, median: 8 days, proximal colon epithelium, flow cytometry, control 23%; for reduction of number of PCNA+ cells/crypt: distal colon, IHC
# Text: Mice were weighed daily, and after at least 5 days of continuous consumption they were sacrificed, and the colon was dissected and processed for quantitation of proliferation by flow cytometry (proximal region) and by IHC (distal region). For flow cytometry, the epithelium was enriched by isolating crypts as described previously, followed by ethanol fixation and staining with phycoerythrin-conjugated anti-mouse Ki-67 antibodies according to the manufacturer instructions (Biolegend, San Diego, CA, USA). Flow cytometry was carried out using a BD Accuri C6 flow cytometer, and data were analyzed using FCS Express 7 software (De Novo Software, Pasadena, CA, USA). Processing the distal colon tissues for histology and immunohistochemistry was carried out as previously described. Briefly, tissues were fixed with 10% formaldehyde, embedded in paraffin blocks, and sectioned by the Augusta University histology core. The tissues were probed using antibodies to PCNA (1:100; Cell Signaling, Danvers, MA, USA). Visualization of PCNA antibodies was carried out using the ImmunoCruz ABC kit (Santa Cruz Biotechnology, Dallas, TX, USA). At least 10 different regions of the colon containing approximately 8 crypts per region were counted for each mouse.
# mice [4] = assay: Tolerability and plasma level with compound in drinking water for up to 8 days; type: in vivo
# in vivo = conditions: both, mouse, po
# [5] = both, mouse, in vivo, po
# [6] = Tolerability and plasma level with compound in drinking water for up to 8 days; type: in vivo; conditions: male, mouse, plasma, oral, 9 mg/kg daily; mice, in drinking water for 8 days
# [7] = 9 mg/kg in drinking water, up to 8 days
structure (smiles),measurement,setting,value
"O=[N+]([O-])O[C@@H]1CO[C@H]2[C@@H]1OC[C@@H]2O [ISMN, isosorbide mononitrate]",arterial blood pressure after drug,mice [1],126 mmHg
CCCc1nn(C)c2c(=O)[nH]c(-c3cc(S(=O)(=O)N4CCN(C(=O)CC(=O)O)CC4)ccc3OCC)nc12 [malonyl-sildenafil],level in feces,[2]; oral 9 mg/kg,90 µg/g
same,level in feces,[2]; oral 36 mg/kg,244 µg/g
same,level in plasma,"[2]; oral, doses up to 36 mg/kg, 1 h after administration",did not result in detectable levels
same,excretion in feces,"[2]; single oral 9 mg/kg, 8 h after administration",continued to be excreted at high levels
same,level in plasma at other times of time course,"[2]; single oral 9 mg/kg, any time other than 1 h during 24 h",not detected
same,plasma peak in time course,"[2]; single oral 9 mg/kg, at 1 h",11 nM
same,IC50,human PDE5a,6.5 nM
same,EC50,[3],12100 nM
same,"fold less potent than parent compound at increasing cGMP levels, based upon EC50",[3]; versus sildenafil,18 fold
same,"Ki67+ cells, median",colon epithelium,7%
same,reduction of number of PCNA+ cells/crypt,colon epithelium,about 30%
same,body weight compared to sildenafil or water alone,mice [4]; [7],no difference
same,observed deleterious effects,mice [4]; [7],no observed deleterious effects
same,histological analysis of the colon mucosa,"mice [4]; 8 days in drinking water, H&E","no obvious epithelial damage, edema or leukocyte infiltration"
same,level in plasma,mice [4]; in drinking water for 8 days,not detected
"CCCc1nn(C)c2c(=O)[nH]c(-c3cc(S(=O)(=O)N4CCN(C)CC4)ccc3OCC)nc12 [sildenafil, reference compound]",concentration at 1 h,in vivo; 9 mg/kg,250 nM
same,concentration at 1 h,in vivo; 36 mg/kg,3500 nM
same,time of peak in plasma,[5],1 to 2 h
same,EC50,[3],670 nM
same,"Ki67+ cells, median",colon epithelium,11%
same,reduction of number of PCNA+ cells/crypt,colon epithelium,about 30%
same,concentration at 8 days,[6],3.3 nM
